In US9701670B2, “Pyrazolyl-ureas as kinase inhibitors” (RESPIVERT LIMITED, priority 2013, dated 2017):

How the values were obtained:
[1] = system: β-catenin in d-U937 cells; test: (m) Accumulation of β catenin in d-U937 cells; type: cell-based, human
Experimental: U937 cells, a human monocytic cell line, are differentiated into macrophage-type cells by incubation with PMA; (100 ng/mL) for between 48 to 72 hr. The cells are then incubated with either final concentrations of test compound or vehicle for 18 hr. The induction of β-catenin by the test compounds is stopped by replacing the media with 4% formaldehyde solution. Endogenous peroxide activity is neutralised by incubating with quenching buffer (100 μL, 0.1% sodium azide, 1% H2O2 in PBS with 0.05% Tween-20) for 20 min. The cells are washed with washing buffer (200 μL; PBS containing 0.05% Tween-20) and incubated with blocking solution (200 μL; 5% milk in PBS) for 1 hr, re-washed with washing buffer (200 μL) and then incubated overnight with anti-β-catenin antibody solution (50 μL) in 1% BSA/PBS (BD, Oxford, UK).
After washing with washing buffer (3×200 μL; PBS containing 0.05% Tween-20), cells are incubated with an HRP-conjugated secondary antibody solution (100 μL) in 1% BSA/PBS (Dako, Cambridge, UK) and the resultant signal is determined colourimetrically (OD: 450 nm with a reference wavelength of 655 nm) using TMB substrate (50 μL; R&D Systems, Abingdon, UK). This reaction is stopped by addition of 1N H2SO4 solution (50 μL). Cells are then washed with washing buffer and 2% crystal violet solution (50 μL) is applied for 30 min. After washing with washing buffer (3×200 μL), 1% SDS (100 μL) is added to each well and the plates are shaken lightly for 1 hr prior to measuring the absorbance at 595 nm (Varioskan® Flash, Thermo-Fisher Scientific).
The measured OD450-655 readings are corrected for cell number by dividing the OD450-655 by the OD595 readings. […] A signal less than 0.15 (15%) of that observed for the standard control is designated as “-ve”.

[2] = target: T1, p38 MAPKα isoform (MAPK14) (Homo sapiens (Human), UniProt Q16539); test: p38 MAPKα enzyme inhibition (FRET, Z-LYTE), Method 2; type: biochemical; conditions: Method 2, different laboratory (Table 4a2)
T1 sequence (Q16539 whole entry, canonical isoform): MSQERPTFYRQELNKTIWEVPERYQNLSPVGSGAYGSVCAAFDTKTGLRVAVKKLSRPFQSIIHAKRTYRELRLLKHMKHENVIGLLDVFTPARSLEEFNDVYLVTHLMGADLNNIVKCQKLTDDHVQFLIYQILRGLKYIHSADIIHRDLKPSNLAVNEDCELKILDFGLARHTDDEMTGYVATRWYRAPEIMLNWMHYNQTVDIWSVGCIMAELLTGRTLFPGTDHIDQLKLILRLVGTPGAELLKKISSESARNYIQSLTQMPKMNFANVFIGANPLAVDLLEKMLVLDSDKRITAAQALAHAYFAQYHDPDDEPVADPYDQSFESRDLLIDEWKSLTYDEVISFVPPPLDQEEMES
Experimental: The enzyme inhibitory activities of compounds disclosed herein are determined by FRET using synthetic peptides labelled with both donor and acceptor fluorophores (Z-LYTE, Invitrogen Ltd., Paisley, UK).
The inhibitory activities of test compounds against the p38 MAPKα isoform (MAPK14: Invitrogen), are evaluated indirectly by determining the level of activation/phosphorylation of the down-stream molecule, MAPKAP-K2. The p38 MAPKα protein (80 ng/mL, 2.5 μL) is mixed with the test compound (2.5 μL of either 4 μg/mL, 0.4 μg/mL, 0.04 μg/mL or 0.004 μg/mL) for 2 hr at RT. […] The mixture is incubated for 1 hr at RT. Development reagent (protease, 5 μL) is added for 1 hr prior to detection in a fluorescence microplate reader (Varioskan® Flash, ThermoFisher Scientific).
In all cases, the site-specific protease cleaves non-phosphorylated peptide only and eliminates the FRET signal. Phosphorylation levels of each reaction are calculated using the ratio of coumarin emission (donor) over fluorescein emission (acceptor), for which high ratios indicate high phosphorylation and low ratios indicate low phosphorylation levels.

Balb/c mice = test: (A) LPS-induced neutrophil accumulation in mice; type: in vivo, mouse; conditions: 1.75 μg/mouse
Experimental: […] At T=0, mice are placed into an exposure chamber and exposed to LPS (7.0 mL, 0.5 mg/mL solution in PBS) for 30 min). After a further 8 hr the animals are anesthetized, their tracheas cannulated and BALF extracted by infusing and then withdrawing from their lungs 1.0 mL of PBS via the tracheal catheter. Total and differential white cell counts in the BALF samples are measured using a Neubaur haemocytometer. Cytospin smears of the BALF samples are prepared by centrifugation at 200 rpm for 5 min at RT and stained using a DiffQuik stain system (Dade Behring). Cells are counted using oil immersion microscopy. Data for neutrophil numbers in BAL are shown as mean±S.E.M. (standard error of the mean). The percentage inhibition of neutrophil accumulation is calculated for each treatment relative to vehicle treatment.

mice = test: Mouse cigarette smoke model (macrophage and neutrophil accumulation in BALF); type: in vivo; conditions: cigarette smoke model, 1.75 μg/mouse (35 μL, bid, i.n.)
Text: The result of treatment with compound Example (8) on macrophage and neutrophil accumulation in BALF in the mouse cigarette smoke model was investigated (Table 5).

[3] = target: T1, p38 MAPKα isoform (MAPK14); test: p38 MAPKα enzyme inhibition (FRET, Z-LYTE), Method 1; type: biochemical; conditions: Method 1 (Table 4a1)
[4] = system: Differentiated U937 cells; test: (l) Cell viability: MTT assay; type: cell-based, human; conditions: 1 μg/mL
Summary of the method: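 MTT read-out (1 h, absorbance 550 nm) on d-U937 cells after pre-incubation with 1 or 10 μg/mL compound under two regimes: 4 h, 5% FCS, or 24 h, 10% FCS RPMI1640. Values are percent loss of viability relative to vehicle (0.5% DMSO), so increases are reported as negative.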

Row | Compound | IC50 [2] [nM] | % β-catenin induction ([1]; 1 μg/mL test compound) [%] | % β-catenin induction ([1]; 5 μg/mL test compound) [%] | also measured
1 | C#Cc1cc(Nc2nccc(Oc3ccc(NC(=O)Nc4cc(C(C)(C)C)nn4-c4ccc(C)cc4)c4ccccc34)n2)cc(C(=O)N[C@@H](C)CN2CCOCC2)c1 [Example 81, (S)-3-((4-((4-(3-(3-(tert-Butyl)-1-(p-tolyl)-1H-pyrazol-5-yl)ureido)naphthalen-1-yl)oxy)pyrimidin-2-yl)amino)-5-ethynyl-N-(1-morpholinopropan-2-yl)benzamide] | 138 | 3 | −3 | 
2 | CCC(=O)O[C@]1(C(=O)SCF)[C@H](C)C[C@H]2[C@@H]3C[C@H](F)C4=CC(=O)C=C[C@]4(C)[C@@]3(F)[C@@H](O)C[C@@]21C [fluticasone propionate, reference compound] |  |  |  | inhibition of LPS-induced neutrophil accumulation (Balb/c mice): > 80%; inhibition of neutrophil or macrophage accumulation into airways (mice): did not inhibit
3 | C#Cc1cc(Nc2nccc(Oc3ccc(NC(=O)Nc4cc(C(C)(C)C)nn4-c4ccc(C)cc4)c4ccccc34)n2)cc(C(=O)NCCN2CCOCC2)c1 [Example 75, 3-((4-((4-(3-(3-(tert-Butyl)-1-(p-tolyl)-1H-pyrazol-5-yl)ureido)naphthalen-1-yl)oxy)pyrimidin-2-yl)amino)-5-ethynyl-N-(2-morpholinoethyl)benzamide] | 49 | −14 | −10 | 
4 | C#Cc1cc(Nc2nccc(Oc3ccc(NC(=O)Nc4cc(C(C)(C)C)nn4-c4ccc(OC)nc4)c4ccccc34)n2)cc(C(=O)NCCN2CCOCC2)c1 [Example 73, 3-((4-((4-(3-(3-(tert-Butyl)-1-(6-methoxypyridin-3-yl)-1H-pyrazol-5-yl)ureido)naphthalen-1-yl)oxy)pyrimidin-2-yl)amino)-5-ethynyl-N-(2-morpholinoethyl)benzamide] | 47 | 17 | −7 | % β-catenin induction ([1]; 10 μg/mL test compound): 7%
5 | C#Cc1cc(Nc2nccc(Oc3ccc(NC(=O)Nc4cc(C(C)(C)C(F)(F)F)nn4-c4ccc(C)cc4)c4ccccc34)n2)cc(C(=O)NCCN2CCOCC2)c1 [Example 76, 3-Ethynyl-N-(2-morpholinoethyl)-5-((4-((4-(3-(1-(p-tolyl)-3-(1,1,1-trifluoro-2-methylpropan-2-yl)-1H-pyrazol-5-yl)ureido)naphthalen-1-yl)oxy)pyrimidin-2-yl)amino)-benzamide] | 233 | −3 | −1 | 
6 | C#Cc1cc(Nc2nccc(Oc3ccc(NC(=O)Nc4cc(C(C)(C)C)nn4-c4ccc(C)cc4)c4ccccc34)n2)cc(C(=O)NC(C)(C)CN2CCOCC2)c1 [Example 82, 3-((4-((4-(3-(3-(tert-Butyl)-1-(p-tolyl)-1H-pyrazol-5-yl)ureido)naphthalen-1-yl)oxy)pyrimidin-2-yl)amino)-5-ethynyl-N-(2-methyl-1-morpholinopropan-2-yl)-benzamide] |  | 0 | 9 | 
7 | C#Cc1cc(Nc2nccc(Oc3ccc(NC(=O)Nc4cc(C(C)(C)C#N)nn4-c4ccc(C)cc4)c4ccccc34)n2)cc(C(=O)NCCN2CCOCC2)c1 [Example 78, 3-((4-((4-(3-(3-(2-Cyanopropan-2-yl)-1-(p-tolyl)-1H-pyrazol-5-yl)ureido)-naphthalen-1-yl)oxy)pyrimidin-2-yl)amino)-5-ethynyl-N-(2-morpholinoethyl)benzamide] |  | 9 | 0 | 
8 | C=C(C)c1cc(NC(=O)Nc2ccc(Oc3ccnc(Nc4cc(OC)cc(C(=O)NCCN5CCOCC5)c4)n3)c3ccccc23)n(-c2ccc(OC)cc2)n1 [Example 86, 3-Methoxy-5-((4-((4-(3-(1-(4-methoxyphenyl)-3-(prop-1-en-2-yl)-1H-pyrazol-5-yl)ureido)naphthalen-1-yl)oxy)pyrimidin-2-yl)amino)-N-(2-morpholinoethyl)-benzamide] |  |  |  | IC50 [3]: 10 nM; β-catenin inductive effect relative to the effect produced by the Reference Compound at 1 μg/mL ([1]; test concentration of 10 μg/mL, found to be negative): less than 15%; Cell viability at time point in d-U937 cells 4 h ([4]; 4 h): −ve (−ve and +ve indicate that the value is below and above respectively, the no significant effect threshold, defined as 30% inhibition at 1 μg/mL at the time point indicated.); Cell viability at time point in d-U937 cells 24 h ([4]; 24 h): −ve (−ve and +ve indicate that the value is below and above respectively, the no significant effect threshold, defined as 30% inhibition at 1 μg/mL at the time point indicated.)
9 | C#Cc1cc(Nc2nccc(Oc3ccc(NC(=O)Nc4cc(C(C)(C)C)nn4-c4ccc(C)cc4)c4ccccc34)n2)cc(C(=O)N[C@H](C)CN2CCOCC2)c1 [Example 83, (R)-3-((4-((4-(3-(3-(tert-Butyl)-1-(p-tolyl)-1H-pyrazol-5-yl)ureido)naphthalen-1-yl)oxy)pyrimidin-2-yl)amino)-5-ethynyl-N-(1-morpholinopropan-2-yl)benzamide] | 261 | −3 | −6 | 

The next lines start with results.

Row | IC50 [2] [nM] | Compound | % β-catenin induction ([1]; 1 μg/mL test compound) [%] | % β-catenin induction ([1]; 5 μg/mL test compound) [%] | also measured
10 | 408 | C#Cc1cc(Nc2nccc(Oc3ccc(NC(=O)Nc4cc(C(C)C)nn4-c4ccc(C)cc4)c(Cl)c3Cl)n2)cc(C(=O)NCCN2CCOCC2)c1 [Example 87, 3-((4-(2,3-Dichloro-4-(3-(3-isopropyl-1-(p-tolyl)-1H-pyrazol-5-yl)ureido)-phenoxy)pyrimidin-2-yl)amino)-5-ethynyl-N-(2-morpholinoethyl)benzamide] |  |  | 
11 | 158 | C#Cc1cc(Nc2nccc(Oc3ccc(NC(=O)Nc4cc(C(C)(C)C)nn4-c4ccc(OC)cc4)c4ccccc34)n2)cc(C(=O)N[C@@H](C)COC)c1 [Example 85, (S)-3-((4-((4-(3-(3-(tert-Butyl)-1-(4-methoxyphenyl)-1H-pyrazol-5-yl)ureido)-naphthalen-1-yl)oxy)pyrimidin-2-yl)amino)-5-ethynyl-N-(1-methoxypropan-2-yl)-benzamide] | 7 | 3 | % β-catenin induction ([1]; 10 μg/mL test compound): 6%
